pIC50: −log10 of the molar value. Read-outs that look alike come from different tables or passages of the source.
Legend:
[1] = target: human IL-17A / human IL-17RA (Homo sapiens (Human), UniProt Q16552); assay: Human IL-17A biochemical assay (HTRF, blocking of IL-17A binding to IL-17RA); details: 0.4 nM IL-17A, 0.3 nM IL-17RA, max compound concentration 10 uM
Method in brief: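 0.4 nM hIL-17A + cpd (10 uM top, 2.7x, 10 pt), 3 h RT, HEPES pH 7.5 buffer w/ BSA, DTT, Tween 20; + 0.3 nM hIL-17RA 1 h RT; Tb/XL665 Abs 1 h; HTRF 620/665 ratio; 4PL IC50.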

[2] = system: IL-17-induced GROα secretion from HT-29 cells; assay: GROα release assay in human colorectal adenocarcinoma epithelial cell (HT-29, ELISA); assay type: cell-based; details: Homo sapiens, 10 ng/mL IL-17A, highest concentration 10 μM, read-out: Cellular assay HT29 cell/CXCL1 IC50
Experimental: The purpose of the assay is to test the ability of a compound to neutralize IL17A proteins. IL17 can stimulate human epithelial cells to secrete GROα. The ability of one compound of the invention to neutralize IL-17-induced GROα secretion from the human colorectal adenocarcinoma epithelia cell line HT-29 is tested in this assay.
HT-29 cells (human colorectal adenocarcinoma epithelia cell, ATCC) were stimulated with IL-17A (Novoprotein, #C774) in final concentration of 10 ng/mL. The resultant GROα response was measured using an ELISA kit from Invitrogen (#88-52122). HT-29 cells were cultured in complete medium (McCoy's 5A medium+10% FBS) and maintained in a tissue culture flask using standard techniques. On day 1, detached the cell by using TrypLE (Gibco, #12605036) and used the complete medium to neutralize. The cells were centrifuged at 11,00 rmp for 4 minutes. Re-suspended the cell pellet in complete medium and seeded 50,000 HT-29 cells into the 96-well assay plate (Corning, 3599) at 135 μL complete medium per well. The cells were incubated for overnight, at 37° C./5% CO2 to adherent the plate. On day 2, prepared a 4-fold serial dilution of the tested compound in DMSO. The highest concentration of the compound was 10 μM. Transferred 2 μL of the serial diluted compound from the serial dilution plate into the reagent plate which was contained 198 μL complete medium with 100 ng/mL IL-17A per well. The compounds were incubated with the IL-17A for 15 minutes. 15 μL mixtures from reagent plate were transferred into the cell assay plate. Incubated the plate at 37° C./5% CO2 for 48 hours. After the incubation, on day 4, GROα level were measured with GROα ELISA as the manufacturer's instructions. 50 μL supernatant was collected form the assay plate to ELISA plate. ELISA plate was read at 450 nm on a microplate reader and compared to a standard calibration curve.
Data were processed using GraphPad Prism. GROα concentration was calculated from the standard curve. IC50 was determined using the equation log concentration (inhibitor) against response and fitted to four parameters.

Chain of human IL-17A / human IL-17RA (Q16552 24-155): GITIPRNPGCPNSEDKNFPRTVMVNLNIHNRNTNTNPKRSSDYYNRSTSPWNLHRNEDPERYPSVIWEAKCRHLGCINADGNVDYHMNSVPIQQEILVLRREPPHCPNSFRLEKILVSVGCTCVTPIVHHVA

SMILES	pIC50 [1]	pIC50 ([2]; HT-29, 48 h)	pIC50 ([2]; 48 hours)
CNC(=O)C1(N2CC(C(C)C)NC2=O)Cc2cc3nc([C@@H](NC(=O)c4ccnn4C)C4CCCCC4)[nH]c3cc2C1 (stereo partly drawn) [Example 28, 2-((S)-cyclohexyl(1-methyl-1H-pyrazole-5-carboxamido)methyl)-6-(4-isopropyl-2-oxoimidazolidin-1-yl)-N-methyl-1,5,6,7-tetrahydroindeno[5,6-d]imidazole-6-carboxamide]	6.40	7.12	–
CNC(=O)C1(N2CC(C(C)C)NC2=O)Cc2cc3nc([C@@H](NC(=O)c4nonc4C)C4CCCCC4)[nH]c3cc2C1 (stereo partly drawn) [Example 29, N-((1S)-cyclohexyl(6-(4-isopropyl-2-oxoimidazolidin-1-yl)-6-(methylcarbamoyl)-1,5,6,7-tetrahydroindeno[5,6-d]imidazol-2-yl)methyl)-4-methyl-1,2,5-oxadiazole-3-carboxamide]	6.80	6.83	–
CNC(=O)C1(N2CC(C(C)C)NC2=O)Cc2ccc(NC(=O)[C@@H](NC(=O)c3nonc3C)C3CCCCC3)cc2C1 (stereo partly drawn) [Example 30, N-((1S)-1-cyclohexyl-2-((2-(4-isopropyl-2-oxoimidazolidin-1-yl)-2-(methylcarbamoyl)-2,3-dihydro-1H-inden-5-yl)amino)-2-oxoethyl)-4-methyl-1,2,5-oxadiazole-3-carboxamide]	7.24	6.24	–
CC[C@@H]1CN(C2(C(=O)NC)Cc3cc4nc([C@@H](NC(=O)c5ccnn5C)C5CCCCC5)[nH]c4cc3C2)C(=O)N1 [Example 31, 2-((S)-cyclohexyl(1-methyl-1H-pyrazole-5-carboxamido)methyl)-6-((R)-4-ethyl-2-oxoimidazolidin-1-yl)-N-methyl-1,5,6,7-tetrahydroindeno[5,6-d]imidazole-6-carboxamide]	6.69	6.94	–
CC[C@@H]1CN(C2(C(=O)NC)Cc3cc4nc([C@@H](NC(=O)c5nonc5C)C5CCCCC5)[nH]c4cc3C2)C(=O)N1 [Example 32, N-((1S)-cyclohexyl(6-((R)-4-ethyl-2-oxoimidazolidin-1-yl)-6-(methylcarbamoyl)-1,5,6,7-tetrahydroindeno[5,6-d]imidazol-2-yl)methyl)-4-methyl-1,2,5-oxadiazole-3-carboxamide]	7.21	6.87	–
CNC(=O)C1(N2CC(C(C)COC)NC2=O)Cc2ccc(NC(=O)[C@@H](NC(=O)c3ccnn3C)C3CCCCC3)cc2C1 (stereo partly drawn) [Example 35, N-((1S)-1-cyclohexyl-2-((2-(4-(1-methoxypropan-2-yl)-2-oxoimidazolidin-1-yl)-2-(methylcarbamoyl)-2,3-dihydro-1H-inden-5-yl)amino)-2-oxoethyl)-1-methyl-1H-pyrazole-5-carboxamide]	6.53	5.69	–
CNC(=O)C1(N2C[C@@H](Cc3ccccc3)NC2=O)Cc2ccc(NC(=O)[C@@H](NC(=O)c3ccnn3C)C3CCCCC3)cc2C1 (stereo partly drawn) [Example 37, N-((1S)-2-((2-((R)-4-benzyl-2-oxoimidazolidin-1-yl)-2-(methylcarbamoyl)-2,3-dihydro-1H-inden-5-yl)amino)-1-cyclohexyl-2-oxoethyl)-1-methyl-1H-pyrazole-5-carboxamide]	6.95	5.83	–
CNC(=O)C1(N2CC(C(C)C)NC2=O)Cc2ccc(NC(=O)[C@@H](NC(=O)c3ccnn3C)C3CCCCC3)cc2C1 (stereo partly drawn) [Example 38, N-((1S)-1-cyclohexyl-2-((2-(4-isopropyl-2-oxoimidazolidin-1-yl)-2-(methylcarbamoyl)-2,3-dihydro-1H-inden-5-yl)amino)-2-oxoethyl)-1-methyl-1H-pyrazole-5-carboxamide]	7.34	6.81	–
CNC(=O)C1(N2C[C@@H](C(C)C)NC2=O)Cc2ccc(NC(=O)[C@@H](NC(=O)c3ccnn3C)C3CCCCC3)cc2C1 (stereo partly drawn) [Example 39, N-((1S)-1-cyclohexyl-2-((2-((R)-4-isopropyl-2-oxoimidazolidin-1-yl)-2-(methylcarbamoyl)-2,3-dihydro-1H-inden-5-yl)amino)-2-oxoethyl)-1-methyl-1H-pyrazole-5-carboxamide]	7.65	7.25	–
CNC(=O)C1(N2C[C@@H](C(C)C)NC2=O)Cc2ccc(NC(=O)[C@@H](NC(=O)c3nonc3C)C3CCCCC3)cc2C1 (stereo partly drawn) [Example 40, N-((1S)-1-cyclohexyl-2-((2-((R)-4-isopropyl-2-oxoimidazolidin-1-yl)-2-(methylcarbamoyl)-2,3-dihydro-1H-inden-5-yl)amino)-2-oxoethyl)-4-methyl-1,2,5-oxadiazole-3-carboxamide]	7.60	6.84	–
CNC(=O)C1(N2C[C@@H](C3CC3)NC2=O)Cc2ccc(NC(=O)[C@@H](NC(=O)c3ccnn3C)C3CCCCC3)cc2C1 (stereo partly drawn) [Example 41, N-((1S)-1-cyclohexyl-2-((2-((R)-4-cyclopropyl-2-oxoimidazolidin-1-yl)-2-(methylcarbamoyl)-2,3-dihydro-1H-inden-5-yl)amino)-2-oxoethyl)-1-methyl-1H-pyrazole-5-carboxamide]	7.00	6.31	–
CNC(=O)C1(N2C[C@@H](Cc3ccccn3)NC2=O)Cc2ccc(NC(=O)[C@@H](NC(=O)c3ccnn3C)C3CCCCC3)cc2C1 (stereo partly drawn) [Example 43, N-((1S)-1-cyclohexyl-2-((2-(methylcarbamoyl)-2-((R)-2-oxo-4-(pyridin-2-ylmethyl)imidazolidin-1-yl)-2,3-dihydro-1H-inden-5-yl)amino)-2-oxoethyl)-1-methyl-1H-pyrazole-5-carboxamide]	5.83	5.62	–
CNC(=O)C1(N2CC(C(C)(C)C)NC2=O)Cc2ccc(NC(=O)[C@@H](NC(=O)c3ccnn3C)C3CCCCC3)cc2C1 (stereo partly drawn) [Example 44, N-((1S)-2-((2-(4-(tert-butyl)-2-oxoimidazolidin-1-yl)-2-(methylcarbamoyl)-2,3-dihydro-1H-inden-5-yl)amino)-1-cyclohexyl-2-oxoethyl)-1-methyl-1H-pyrazole-5-carboxamide]	7.33	6.64	–
CNC(=O)C1(N2C[C@@H](C(C)C)NC2=O)Cc2ccc(NC(=O)[C@@H](NC(=O)c3ccnn3C)C3CCCC3)cc2C1 (stereo partly drawn) [Example 46, N-((1S)-1-cyclopentyl-2-((2-((R)-4-isopropyl-2-oxoimidazolidin-1-yl)-2-(methylcarbamoyl)-2,3-dihydro-1H-inden-5-yl)amino)-2-oxoethyl)-1-methyl-1H-pyrazole-5-carboxamide]	6.59	6.27	–
CNC(=O)C1(N2C[C@@H](C(C)C)NC2=O)Cc2ccc(NC(=O)[C@@H](NC(=O)c3ccnn3C)C3CCCCCC3)cc2C1 (stereo partly drawn) [Example 47, N-((1S)-1-cycloheptyl-2-((2-((R)-4-isopropyl-2-oxoimidazolidin-1-yl)-2-(methylcarbamoyl)-2,3-dihydro-1H-inden-5-yl)amino)-2-oxoethyl)-1-methyl-1H-pyrazole-5-carboxamide]	7.96	7.94	–
CNC(=O)C1(N2CC(C(C)c3ccccc3)NC2=O)Cc2ccc(NC(=O)[C@@H](NC(=O)c3ccnn3C)C3CCCCC3)cc2C1 (stereo partly drawn) [Example 48, N-((1S)-1-cyclohexyl-2-((2-(methylcarbamoyl)-2-(2-oxo-4-(1-phenylethyl)imidazolidin-1-yl)-2,3-dihydro-1H-inden-5-yl)amino)-2-oxoethyl)-1-methyl-1H-pyrazole-5-carboxamide]	6.79	5.90	–
CNC(=O)C1(N2C[C@@H](C(C)C)NC2=O)Cc2ccc(NC(=O)[C@@H](NC(=O)Oc3ccccc3)C3CCCCC3)cc2C1 (stereo partly drawn) [Example 51, phenyl ((1S)-1-cyclohexyl-2-((2-((R)-4-isopropyl-2-oxoimidazolidin-1-yl)-2-(methylcarbamoyl)-2,3-dihydro-1H-inden-5-yl)amino)-2-oxoethyl)carbamate]	6.16	–	5.69
CNC(=O)C1(N2C[C@@H](C(C)C)NC2=O)Cc2ccc(NC(=O)[C@@H](NC(=O)Cc3ccccc3)C3CCCCC3)cc2C1 (stereo partly drawn) [Example 53, 5-((S)-2-cyclohexyl-2-(2-phenylacetamido)acetamido)-2-((R)-4-isopropyl-2-oxoimidazolidin-1-yl)-N-methyl-2,3-dihydro-1H-indene-2-carboxamide]	6.65	6.13	–
